Results reported in patent publication US5556744A, “Methods and compositions for diagnosing and treating certain HIV infected patients” (The Trustees of the University of Pennsylvania, priority 1994, dated 1996).

Assays:
[1] = tested on: maternal HIV+ sera (antibodies); test: RIA / ELISA binding of maternal HIV+ sera to gp120 and gp41 peptides (Example 3); set-up: species or system human; details: for Number of maternal sera binding to peptide: 20 maternal sera; for Binding of maternal sera to peptide (in words): Example 3; for Number of binding maternal sera from the non-transmission group: non-transmission group (13 sera); for Number of binding maternal sera from the transmission group: vertical transmission group (7 sera)
Outline: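 Maternal sera, diluted 1:50 and 1:500, were bound overnight at 4°C to peptides immobilized at 10 μg/ml (pH 9.6 carbonate) and blocked with 1% BSA. Read-out was ¹²⁵I-labelled anti-human IgG counts or HRP-TMB OD450. Signal with peptide minus without was expressed relative to seronegative serum.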

[2] = tested on: HIV-1 infected cells (MN isolate); test: Anti-syncytial assay (inhibition of HIV-1 MN syncytium formation, SupT1 target cells); format: cell-based
Excerpt: (§1) The H9 cell line (a cutaneous T lymphoma line) infected by HIV-IIIB [ATCC CRL 8543] was used in the neutralization assay. The H9 cell line infected by HIV-MN was used in the anti-syncytial assays. SupT1 and Hut78 cells were used as the target cell lines for the anti-syncytial and neutralization assays. All cell lines were obtained from the National Institutes of Health AIDS Repository (Bethesda, Md.).
To analyze the effect of the maternal serum samples on HIV-1 fusion, SupT1 cells were used as target cells in an anti-syncytial assay. Dilutions of the different maternal serum samples were made in 96 well plates in RPMI 1640 media containing 10% fetal calf serum at final dilutions of 1:4, 1:8, 1:16, 1:32, 1:64, 1:128, 1:256 or 1:512. HIV-1 infected cells (MN isolate) were then plated in the wells at a density of approximately 10^4 cells per well. SupT1 target cells were then added at 5×10^5 /well and the number of syncytia are determined after 3 days of incubation. Inhibition of syncytium formation by a serum sample was considered significant if the dilution which yielded a 50% reduction in the number of syncytia when compared to control was greater than 1:32. The average number of syncytia in the control (normal human serum) wells at the above dilutions were: 45.5, 48.5, 44, 48, 48.5, 41.5, 42 and 45.5 respectively.

HIV-IIIB viral isolate = test: Neutralization assay (HIV-IIIB, Hut-78 cells, p24 antigen ELISA); format: cell-based, HIV-1 IIIB
Description: as §1
In a neutralization assay, 20 μl of maternal sera samples was placed in 96 round bottom well plates at final dilutions of 1:10, 1:90 and 1:810 in RPMI. The HIV-IIIB viral isolate was diluted in RPMI to a TCID50 of 100 units/ml. Twenty μl of the virus solution was placed in each well and the plate was incubated for one hour at 4° C. Hut-78 cells were incubated with 2 μg/ml of polybrene for one hour at 37° C. in a CO2 incubator. The HUT-78 cells were washed and resuspended in fresh RPMI to a final concentration of 4×10^6 cells/ml. Ten μl of the cell suspension was added to each well and the plate was incubated for one hour in a 37° C., CO2 incubator.
Fifteen μl of the serum/cell/virus solution was aliquoted to a new plate containing 200 μl of fresh RPMI and incubated for 6 days. After 6 days, 100 μl was used to analyze for p24 antigen. The p24 capture ELISA assay kit (Coulter Corporation, Hialeah, Fla.) was used to perform the measurements.
Further, sera samples at the same dilutions as described above were tested for residual p24 core protein or antibody to insure the results were due only to viral infection.

[3] = Serum No. 1, Non-Transmission Group
[4] = Serum No. 2, Non-Transmission Group
[5] = Serum No. 3, Non-Transmission Group
[6] = Serum No. 4, Transmission Group
[7] = Serum No. 5, Transmission Group
[8] = Serum No. 6, Non-Transmission Group
[9] = Serum No. 7, Non-Transmission Group
[10] = Serum No. 8, Non-Transmission Group
[11] = Serum No. 9, Non-Transmission Group
[12] = Serum No. 10, Transmission Group
[13] = Serum No. 11, Non-Transmission Group
[14] = Serum No. 12, Non-Transmission Group
[15] = Serum No. 13, Transmission Group
[16] = Serum No. 14, Transmission Group
[17] = Serum No. 15, Transmission Group
[18] = Serum No. 16, Non-Transmission Group
[19] = Serum No. 17, Non-Transmission Group
[20] = Serum No. 18, Non-Transmission Group
[21] = Serum No. 19, Transmission Group
[22] = Serum No. 20, Non-Transmission Group

| Sequence | Number of maternal sera binding to peptide [1] | Binding of maternal sera to peptide (in words) [1] | Binding of maternal HIV+ serum to peptide (sera/NHS ratio) [1, 3] | Binding of maternal HIV+ serum to peptide (sera/NHS ratio) [1, 4] | Binding of maternal HIV+ serum to peptide (sera/NHS ratio) [1, 5] | Binding of maternal HIV+ serum to peptide (sera/NHS ratio) [1, 6] | Binding of maternal HIV+ serum to peptide (sera/NHS ratio) [1, 7] | Binding of maternal HIV+ serum to peptide (sera/NHS ratio) [1, 8] | Binding of maternal HIV+ serum to peptide (sera/NHS ratio) [1, 9] | Binding of maternal HIV+ serum to peptide (sera/NHS ratio) [1, 10] | Binding of maternal HIV+ serum to peptide (sera/NHS ratio) [1, 11] | Binding of maternal HIV+ serum to peptide (sera/NHS ratio) [1, 12] | Binding of maternal HIV+ serum to peptide (sera/NHS ratio) [1, 13] | Binding of maternal HIV+ serum to peptide (sera/NHS ratio) [1, 14] | Binding of maternal HIV+ serum to peptide (sera/NHS ratio) [1, 15] | Binding of maternal HIV+ serum to peptide (sera/NHS ratio) [1, 16] | Binding of maternal HIV+ serum to peptide (sera/NHS ratio) [1, 17] | Binding of maternal HIV+ serum to peptide (sera/NHS ratio) [1, 18] | Binding of maternal HIV+ serum to peptide (sera/NHS ratio) [1, 19] | Binding of maternal HIV+ serum to peptide (sera/NHS ratio) [1, 20] | also measured |
| --- | --- | --- | --- | --- | --- | --- | --- | --- | --- | --- | --- | --- | --- | --- | --- | --- | --- | --- | --- | --- | --- |
| CFRPGGGDMRDNWREL [Peptide 466] | three | very strong binding | - (specific OD450 or cpm of sera sample binding to peptide divided by the specific OD450 or cpm of NHS sample binding to peptide, which value is less than 2) | - (specific OD450 or cpm of sera sample binding to peptide divided by the specific OD450 or cpm of NHS sample binding to peptide, which value is less than 2) | - (specific OD450 or cpm of sera sample binding to peptide divided by the specific OD450 or cpm of NHS sample binding to peptide, which value is less than 2) | - (specific OD450 or cpm of sera sample binding to peptide divided by the specific OD450 or cpm of NHS sample binding to peptide, which value is less than 2) | - (specific OD450 or cpm of sera sample binding to peptide divided by the specific OD450 or cpm of NHS sample binding to peptide, which value is less than 2) | + (which value is between 2 to 3) | - (specific OD450 or cpm of sera sample binding to peptide divided by the specific OD450 or cpm of NHS sample binding to peptide, which value is less than 2) | - (specific OD450 or cpm of sera sample binding to peptide divided by the specific OD450 or cpm of NHS sample binding to peptide, which value is less than 2) | ++ (which value is greater than 3) | - (specific OD450 or cpm of sera sample binding to peptide divided by the specific OD450 or cpm of NHS sample binding to peptide, which value is less than 2) | - (specific OD450 or cpm of sera sample binding to peptide divided by the specific OD450 or cpm of NHS sample binding to peptide, which value is less than 2) | - (specific OD450 or cpm of sera sample binding to peptide divided by the specific OD450 or cpm of NHS sample binding to peptide, which value is less than 2) | - (specific OD450 or cpm of sera sample binding to peptide divided by the specific OD450 or cpm of NHS sample binding to peptide, which value is less than 2) | - (specific OD450 or cpm of sera sample binding to peptide divided by the specific OD450 or cpm of NHS sample binding to peptide, which value is less than 2) | - (specific OD450 or cpm of sera sample binding to peptide divided by the specific OD450 or cpm of NHS sample binding to peptide, which value is less than 2) | - (specific OD450 or cpm of sera sample binding to peptide divided by the specific OD450 or cpm of NHS sample binding to peptide, which value is less than 2) | - (specific OD450 or cpm of sera sample binding to peptide divided by the specific OD450 or cpm of NHS sample binding to peptide, which value is less than 2) | + (which value is between 2 to 3) | Binding of maternal HIV+ serum to peptide (sera/NHS ratio) [1, 21]: - (specific OD450 or cpm of sera sample binding to peptide divided by the specific OD450 or cpm of NHS sample binding to peptide, which value is less than 2); Binding of maternal HIV+ serum to peptide (sera/NHS ratio) [1, 22]: - (specific OD450 or cpm of sera sample binding to peptide divided by the specific OD450 or cpm of NHS sample binding to peptide, which value is less than 2); Percent of the maternal serum samples that bound to the peptide ([1]; all 20 samples): 15%; Number of binding maternal sera from the non-transmission group [1]: three; Number of binding maternal sera from the transmission group [1]: Zero; Antisyncytial activity of non-transmission sera which reacted with the peptide ([2]; Example 5): possessed, to varying degrees, antisyncytial activity; Number of samples which bound the peptide and possessed anti-syncytial activity ([2]; sera which bound the peptide): all of them; Neutralizing activity of non-transmission sera which reacted with the peptide (HIV-IIIB viral isolate; Example 5): All 3 of these sera exhibited neutralizing activity; Number of samples which bound the peptide and possessed neutralization activity (HIV-IIIB viral isolate; sera which bound the peptide): all of them |
| TLPCASDAKAYDTEV [Peptide 93] | six | Several maternal serum samples had reactivity | ++ (which value is greater than 3) | - (specific OD450 or cpm of sera sample binding to peptide divided by the specific OD450 or cpm of NHS sample binding to peptide, which value is less than 2) | - (specific OD450 or cpm of sera sample binding to peptide divided by the specific OD450 or cpm of NHS sample binding to peptide, which value is less than 2) | ++ (which value is greater than 3) | - (specific OD450 or cpm of sera sample binding to peptide divided by the specific OD450 or cpm of NHS sample binding to peptide, which value is less than 2) | + (which value is between 2 to 3) | ++ (which value is greater than 3) | + (which value is between 2 to 3) | - (specific OD450 or cpm of sera sample binding to peptide divided by the specific OD450 or cpm of NHS sample binding to peptide, which value is less than 2) | - (specific OD450 or cpm of sera sample binding to peptide divided by the specific OD450 or cpm of NHS sample binding to peptide, which value is less than 2) | - (specific OD450 or cpm of sera sample binding to peptide divided by the specific OD450 or cpm of NHS sample binding to peptide, which value is less than 2) | - (specific OD450 or cpm of sera sample binding to peptide divided by the specific OD450 or cpm of NHS sample binding to peptide, which value is less than 2) | - (specific OD450 or cpm of sera sample binding to peptide divided by the specific OD450 or cpm of NHS sample binding to peptide, which value is less than 2) | - (specific OD450 or cpm of sera sample binding to peptide divided by the specific OD450 or cpm of NHS sample binding to peptide, which value is less than 2) | - (specific OD450 or cpm of sera sample binding to peptide divided by the specific OD450 or cpm of NHS sample binding to peptide, which value is less than 2) | + (which value is between 2 to 3) | - (specific OD450 or cpm of sera sample binding to peptide divided by the specific OD450 or cpm of NHS sample binding to peptide, which value is less than 2) | - (specific OD450 or cpm of sera sample binding to peptide divided by the specific OD450 or cpm of NHS sample binding to peptide, which value is less than 2) | Binding of maternal HIV+ serum to peptide (sera/NHS ratio) [1, 21]: - (specific OD450 or cpm of sera sample binding to peptide divided by the specific OD450 or cpm of NHS sample binding to peptide, which value is less than 2); Binding of maternal HIV+ serum to peptide (sera/NHS ratio) [1, 22]: - (specific OD450 or cpm of sera sample binding to peptide divided by the specific OD450 or cpm of NHS sample binding to peptide, which value is less than 2); Number of binding maternal sera from the non-transmission group [1]: 5; Percent of binding maternal sera from the non-transmission group ([1]; of the sera which bound): 83%; Percent of binding maternal sera from the transmission group ([1]; of the sera which bound): 17%; Number of binding maternal sera from the transmission group [1]: 1; Number of samples which bound the peptide and possessed anti-syncytial activity ([2]; sera which bound the peptide): 6; Percent of samples which bound the peptide and possessed anti-syncytial activity ([2]; sera which bound the peptide): 100%; Number of samples which bound the peptide and possessed neutralization activity (HIV-IIIB viral isolate; sera which bound the peptide): 3; Percent of samples which bound the peptide and possessed neutralization activity (HIV-IIIB viral isolate; sera which bound the peptide): 50% |
